Laboratory results published in article PMC11089505, “Structural Elucidation and Antiviral Activity of Covalent Cathepsin L Inhibitors” (Journal of Medicinal Chemistry, 2024).
Several values for one entry are separate records, joined by “and”; a condition that tells them apart may be missing. Identical values can stand only once. Like-named read-outs stand apart in the source and are kept apart here. Peptide text beside a SMILES is read from it. * marks the point of attachment. Cbz = O=C(OCc1ccccc1)*

Assays:
[1] = molecular target: SARS-CoV-2 Mpro (Severe acute respiratory syndrome coronavirus 2, UniProt P0DTD1); format: binding; conditions: for ΔTm (for Mpro), 2:1 compound to protein mixing ratio: 8 µM Mpro, pH 7.5, 2% DMSO; for 2:1, Tm average (Mpro): 2:1 compound to protein
[2] = molecular target: T1, CatL (Homo sapiens, UniProt P07711, T223A); test: CatL inhibition assay (Ki), substrate Z-RR-AMC; format: biochemical
T1 construct: made in house; host or cells: Komagataella pastoris strain GS115
T1 sequence (P07711 114-333 T223A): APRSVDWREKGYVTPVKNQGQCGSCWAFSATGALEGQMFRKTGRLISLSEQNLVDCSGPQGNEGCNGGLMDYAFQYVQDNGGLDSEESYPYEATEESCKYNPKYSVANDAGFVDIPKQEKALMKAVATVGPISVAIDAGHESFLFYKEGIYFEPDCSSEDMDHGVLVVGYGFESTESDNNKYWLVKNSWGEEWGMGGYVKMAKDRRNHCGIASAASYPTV
Description: Experiments were performed in a solution of 50 mM sodium acetate, pH 4.0, 50 mM NaCl, 0.1% PEG 6000, and 5 mM DTT. Distinct assays with epoxide inhibitors at pH 6.0 were performed in 50 mM sodium phosphate buffer, 50 mM NaCl, 5 mM DTT, 0.1% PEG 6000, adjusted to pH 6.0.
M1000 pro plate reader (Tecan), the fluorescent peptide substrate Z-RR-AMC, and excitation and emission wavelengths of 370 and 460 nm, respectively.
At first, the inhibitor concentration span was optimized for each inhibitor and the assay buffer. For this initial screening, CatL (5 nM) was mixed with different concentrations of inhibitors (1 nM–50 μM) to determine the range of their inhibition. […] Reaction data were fitted to the […] in GraphPad Prism 9 software: Y = bottom + (top – bottom)/(1 + 10^∧((log IC50 – X) × HillSlope)); X is the log of dose or concentration, Y is the response (fluorescence signal), decreasing as X increases, top and bottom are the plateaus in the same units as Y, log IC50 same log units as X, HillSlope is the slope factor or called the Hill slope.

[3] = molecular target: T1, CatL; test: NanoDSF, thermal stability of CatL; format: binding
[4] = Cell viability assay (CellTiter-Blue); conditions: African green monkey
[5] = 5 µM CatL, pH 5.0, 2% DMSO, 20:1

## CC(C)(C)OC(=O)Nc1cccn([C@@H](CC2CC2)C(=O)N[C@@H](C[C@@H]2CCNC2=O)C(=O)C(=O)NCc2ccccc2)c1=O [13b, tert-Butyl N-[1-[(2S)-1-[[(2S)-4-(benzylamino)-3,4-dioxo-1-[(3S)-2-oxopyrrolidin-3-yl]butan-2-yl]amino]-3-cyclopropyl-1-oxopropan-2-yl]-2-oxopyridin-3-yl]carbamate]
[1]
  ΔTm (for Mpro), 2:1 compound to protein mixing ratio: 15,7 ± 0,1 °C and 15.7 °C
  2:1, Tm average (Mpro): 70.3 °C
[2]; 13b 31.346 nM
  Residual activity (Vi/V0): 0.9675 and 0.9627 and 0.6897 and 0.9692 and 0.9864 and 0.9669
[2]; 13b 52.243 nM
  Residual activity (Vi/V0): 0.8888 and 0.9182 and 0.9209 and 0.8812 and 0.9125
[2]; 13b 52.243 nM, read-out: Residual activity (Vi/V0)
  remaining activity at 0.052243 µM: 90.6%
[2]; 13b 87.071 nM
  Residual activity (Vi/V0): 0.8265 and 0.8739 and 0.8771 and 0.8407 and 0.8552
[2]; 13b 87.071 nM, read-out: Residual activity (Vi/V0)
  remaining activity at 0.087071 µM: 84.2%
[2]; 13b 145.119 nM
  Residual activity (Vi/V0): 0.7626 and 0.6965 and 0.7661 and 0.7352 and 0.7663
[2]; 13b 145.119 nM, read-out: Residual activity (Vi/V0)
  remaining activity at 0.145119 µM: 77.4%
[2]; 13b 241.865 nM
  Residual activity (Vi/V0): 0.6661 and 0.7001 and 0.6736 and 0.645 and 0.6598
[2]; 13b 403.108 nM
  Residual activity (Vi/V0): 0.5626 and 0.5615 and 0.5111 and 0.5683 and 0.5779
[2]; 13b 403.108 nM, read-out: Residual activity (Vi/V0)
  remaining activity at 0.403108 µM: 56.2%
[2]; 13b 671.846 nM
  Residual activity (Vi/V0): 0.4836 and 0.4354 and 0.4683 and 0.4708 and 0.465
[2]; 13b 671.846 nM, read-out: Residual activity (Vi/V0)
  remaining activity at 0.671846 µM: 47.5%
[2]; 13b 1119.744 nM
  Residual activity (Vi/V0): 0.4051 and 0.4054 and 0.4004 and 0.3916 and 0.3989
[2]; 13b 1119.744 nM, read-out: Residual activity (Vi/V0)
  remaining activity at 1.11974 µM: 38.3%
[2]; 13b 1866.240 nM
  Residual activity (Vi/V0): 0.3283 and 0.3165 and 0.3193 and 0.3153 and 0.3192
[2]; 13b 1866.240 nM, read-out: Residual activity (Vi/V0)
  remaining activity at 1.86624 µM: 32.5%
[2]; 13b 3110.400 nM
  Residual activity (Vi/V0): 0.258 and 0.2535 and 0.24 and 0.2503 and 0.2489
[2]; 13b 3110.400 nM, read-out: Residual activity (Vi/V0)
  remaining activity at 3.1104 µM: 24.7%
[2]; 13b 5184.000 nM
  Residual activity (Vi/V0): 0.1828 and 0.1618 and 0.1725 and 0.1795 and 0.1597
[2]; 13b 8640.000 nM
  Residual activity (Vi/V0): 0.1228 and 0.1221 and 0.1079 and 0.1237 and 0.1244
[2]; 13b 8640.000 nM, read-out: Residual activity (Vi/V0)
  remaining activity at 8.64 µM: 12.4%
[2]; 13b 24000.000 nM
  Residual activity (Vi/V0): 0.04988 and 0.04656 and 0.04753 and 0.05569 and 0.04454
[2]; 13b 24000.000 nM, read-out: Residual activity (Vi/V0)
  remaining activity at 24 µM: 4.42%
[2]; CatL, Z-RR-AMC, pH 4.0, 37 °C, read-out: Ki
  Ki: 293 nM
[3]
  2:1, Tm average (CatL): 68.7 °C
  20:1, Tm average (CatL): 76.7 °C
[3]; pH 5
  ΔTm (for CatL), 2:1 compound to protein mixing ratio: 5,6 ± 0,1 °C and 5.6 °C
  ΔTm (for CatL), 20:1 compound to protein mixing ratio: 13,6 ± 0,1 °C and 13.6 °C

## CC(C)(C)OC(=O)NCC=O [BOCA, tert-Butyl N-2-oxoethylcarbamate]
[1]
  ΔTm (for Mpro), 2:1 compound to protein mixing ratio: -0,3 ± 0,1 °C
  2:1, Tm average (Mpro): 54.7 °C
[1]; listed as N-BOCAAA
  ΔTm (for Mpro), 2:1 compound to protein mixing ratio: -0.3 °C
[3]; [5]
  ΔTm (for CatL), 20:1 compound to protein mixing ratio: 4,4 ± 0,4 °C and 4.4 °C
[3]; 2:1 compound to protein
  2:1, Tm average (CatL): 62.8 °C
[3]; 20:1 compound to protein
  20:1, Tm average (CatL): 67.5 °C
[3]; Table S1, 2:1 ratio
  ΔTm [K] for CatL, 2:1 ratio: -0.3 ± 0.1 K

## CC(C)[C@H](NC(=O)OCc1ccccc1)C(=O)N[C@H](C=O)Cc1ccccc1 [CI-III, N-Cbz-Val-Phe-aldehyde] (Cbz-Val-Phe-aldehyde)
[1]
  2:1, Tm average (Mpro): 54.5 °C
[2]; read-out: Residual activity (Vi/V0), CI-III 0.282 nM
  remaining activity at 0.000282 µM: 60.4%
[2]; read-out: Residual activity (Vi/V0), CI-III 0.404 nM
  remaining activity at 0.000404 µM: 45.4%
[2]; read-out: Residual activity (Vi/V0), CI-III 0.576 nM
  remaining activity at 0.000576 µM: 33.4%
[2]; read-out: Residual activity (Vi/V0), CI-III 0.824 nM
  remaining activity at 0.000824 µM: 23.1%
[2]; read-out: Residual activity (Vi/V0), CI-III 1.176 nM
  remaining activity at 0.001176 µM: 16.3%
[2]; read-out: Residual activity (Vi/V0), CI-III 1.681 nM
  remaining activity at 0.001681 µM: 10.8%
[2]; read-out: Residual activity (Vi/V0), CI-III 2.401 nM
  remaining activity at 0.002401 µM: 6.67%
[2]; read-out: Residual activity (Vi/V0), CI-III 3.430 nM
  remaining activity at 0.00343 µM: 4.1%
[3]; 2:1 compound to protein
  2:1, Tm average (CatL): 75.2 °C
[3]; 20:1 compound to protein
  20:1, Tm average (CatL): 81.2 °C

## CC(C)[C@H](NC(=O)OCc1ccccc1)C(=O)N[C@H](C=O)Cc1ccccc1 [CIII] (Cbz-Val-Phe-aldehyde)
[4]
  viability at 48 h, 1e-05 µM: 95.8%
  viability at 48 h, 0.0001 µM: 95.4%
  viability at 48 h, 0.001 µM: 94.2%
  viability at 48 h, 0.01 µM: 95.3%
  viability at 48 h, 0.1 µM: 96%
  viability at 48 h, 1 µM: 98.9%
  viability at 48 h, 10 µM: 100%

## CC(C)C[C@@H](C=O)NC(=O)[C@@H](NS(=O)(=O)c1ccc(F)cc1)C(C)C [CIVI]
[4]
  viability at 48 h, 1e-05 µM: 95.9%
  viability at 48 h, 0.0001 µM: 96.7%
  viability at 48 h, 0.001 µM: 93.8%
  viability at 48 h, 0.01 µM: 95.9%
  viability at 48 h, 0.1 µM: 95.1%
  viability at 48 h, 1 µM: 98.8%
  viability at 48 h, 10 µM: 98.3%

## CCCC(NC(=O)C(CC(C)C)NC(=O)OCc1ccccc1)C(=O)C(=O)NCc1ccccn1 (stereo not shown) [CIXII]
[4]
  viability at 48 h, 1e-05 µM: 98.9%
  viability at 48 h, 0.0001 µM: 98.8%
  viability at 48 h, 0.001 µM: 98.3%
  viability at 48 h, 0.01 µM: 100%
  viability at 48 h, 0.1 µM: 98.8%
  viability at 48 h, 1 µM: 103%
  viability at 48 h, 10 µM: 106%

## CC[C@@H](C)[C@H](NS(=O)(=O)c1cccc2ccccc12)C(=O)N[C@H](C=O)Cc1c[nH]c2ccccc12 [CLIIV]
[4]
  viability at 48 h, 1e-05 µM: 98.8%
  viability at 48 h, 0.0001 µM: 101%
  viability at 48 h, 0.001 µM: 98%
  viability at 48 h, 0.01 µM: 100%
  viability at 48 h, 0.1 µM: 98.7%
  viability at 48 h, 1 µM: 102%
  viability at 48 h, 10 µM: 101%

## CN(C)C(=O)COC(=O)Cc1ccc(OC(=O)c2ccc(NC(=N)N)cc2)cc1 [Camostat]
[1]
  ΔTm (for Mpro), 2:1 compound to protein mixing ratio: -0.4 °C
  2:1, Tm average (Mpro): 54.6 °C
[3]; [5]
  ΔTm (for CatL), 20:1 compound to protein mixing ratio: -0.2 °C
[3]; 20:1 compound to protein
  20:1, Tm average (CatL): 62.9 °C

## CCOC(=O)[C@H]1O[C@@H]1C(=O)N[C@@H](CC(C)C)C(=O)NCCC(C)C [E-64d, Ethyl (2S,3S)-3-[[(2S)-4-methyl-1-(3-methylbutylamino)-1-oxopentan-2-yl]carbamoyl]oxirane-2-carboxylate]
[1]
  ΔTm (for Mpro), 2:1 compound to protein mixing ratio: -0,3 ± 0,3 °C
  2:1, Tm average (Mpro): 54.7 °C
[1]; listed as E-64d/Aloxistatin
  ΔTm (for Mpro), 2:1 compound to protein mixing ratio: -0.3 °C
[3]; 5 µM CatL, pH 5.0, 2% DMSO, 2:1
  ΔTm (for CatL), 2:1 compound to protein mixing ratio: 4,5 ± 0,1 °C and 4.5 °C
[3]; [5]
  ΔTm (for CatL), 20:1 compound to protein mixing ratio: 11,7 ± 0,4 °C and 11.7 °C
[3]; 2:1 compound to protein
  2:1, Tm average (CatL): 67.6 °C
[3]; 20:1 compound to protein
  20:1, Tm average (CatL): 74.8 °C
[3]; Table S1, 2:1 ratio
  ΔTm [K] for CatL, 2:1 ratio: 4.5 ± 0.1 K

## CC(=O)N[C@@H](CC(C)C)C(=O)N[C@@H](CC(C)C)C(=O)N[C@H](C=O)CCCNC(=N)N [Leupeptin]
[1]
  ΔTm (for Mpro), 2:1 compound to protein mixing ratio: 1,2 ± 0,1 °C and 1.2 °C
  2:1, Tm average (Mpro): 56.2 °C

## Cc1ccc(S(=O)(=O)N[C@@H](Cc2ccccc2)C(=O)CCl)cc1 [TPCK, N-α-Tosyl-L-phenylalanyl chloromethyl ketone]
[3]
  2:1, Tm average (CatL): 67.8 °C
  ΔTm [K] for CatL, 2:1 ratio: 4.7 ± 0.1 K
[3]; pH 5
  ΔTm (for CatL), 2:1 compound to protein mixing ratio: 4,7 ± 0,1 °C and 4.7 °C
  ΔTm (for CatL), 20:1 compound to protein mixing ratio: 7,0 ± 0,1 °C and 7 °C
